{"source": "BindingDB's records for doi:10.1021/jm051074u", "about": "(Cephalon, 2007)", "target": "Mitogen-activated protein kinase kinase kinase 10 (Homo sapiens, UniProt Q02779)", "sequence (Q02779 whole entry)": "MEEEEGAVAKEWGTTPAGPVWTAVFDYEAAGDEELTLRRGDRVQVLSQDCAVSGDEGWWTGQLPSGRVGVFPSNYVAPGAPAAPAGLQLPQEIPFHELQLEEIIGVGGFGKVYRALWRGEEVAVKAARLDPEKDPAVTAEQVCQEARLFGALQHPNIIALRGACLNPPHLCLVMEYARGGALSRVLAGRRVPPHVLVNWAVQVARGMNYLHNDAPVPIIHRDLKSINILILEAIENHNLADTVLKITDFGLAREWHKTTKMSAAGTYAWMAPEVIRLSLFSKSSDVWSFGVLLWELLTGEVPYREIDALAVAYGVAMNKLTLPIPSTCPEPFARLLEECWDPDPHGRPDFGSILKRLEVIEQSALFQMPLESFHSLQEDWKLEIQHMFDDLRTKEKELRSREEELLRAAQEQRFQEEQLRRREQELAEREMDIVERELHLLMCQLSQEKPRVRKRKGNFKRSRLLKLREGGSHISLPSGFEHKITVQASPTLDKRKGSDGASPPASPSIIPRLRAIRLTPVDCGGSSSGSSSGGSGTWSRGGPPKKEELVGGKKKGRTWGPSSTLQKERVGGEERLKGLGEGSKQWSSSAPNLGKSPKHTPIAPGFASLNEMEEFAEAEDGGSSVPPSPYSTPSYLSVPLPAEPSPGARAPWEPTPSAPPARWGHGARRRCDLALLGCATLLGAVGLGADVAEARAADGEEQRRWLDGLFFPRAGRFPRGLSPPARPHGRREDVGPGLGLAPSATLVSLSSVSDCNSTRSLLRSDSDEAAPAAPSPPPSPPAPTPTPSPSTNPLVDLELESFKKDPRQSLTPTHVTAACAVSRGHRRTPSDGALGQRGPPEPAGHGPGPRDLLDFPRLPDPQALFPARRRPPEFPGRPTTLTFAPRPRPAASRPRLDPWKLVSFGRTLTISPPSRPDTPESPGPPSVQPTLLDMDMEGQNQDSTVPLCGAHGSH", "assay": "Mixed-Lineage Kinase Assays", "experimental": "The MLK1, MLK2, and MLK3 assays were performed using the Millipore multiscreen trichloroacetic acid (TCA) in-plate format. IC50 values were calculated by nonlinear regression using the sigmoidal dose-response (variable slope) equation in GraphPad Prism.", "data": [{"smiles": "COC(=O)[C@@]1(O)C[C@H]2O[C@]1(C)n1c3ccccc3c3c4c(c5c6ccccc6n2c5c31)C(=O)NC4", "values": [{"measurement": "IC50", "value": 45, "unit": "nM"}]}]}
